{"source": "paper PMC2877376", "about": "(Journal of biomolecular screening, 2009)", "tested_on": "E. coli K-12 sulA-gfp (strain SS996)", "test": "RecA-dependent SOS activation, sulA-gfp reporter", "format": "cell-based, Escherichia coli", "conditions": "ciprofloxacin only, 90 min, 37 °C; untreated bacteria 0.76"}
{"smiles": "O=C(O)c1cn(C2CC2)c2cc(N3CCNCC3)c(F)cc2c1=O", "note": "[ciprofloxacin]", "values": [{"measurement": "relative GFP expression (GFP/DAPI intensity ratio)", "result": 0.87}]}
